Data: publication PMC6882465, “Towards discovery of new leishmanicidal scaffolds able to inhibit Leishmania GSK-3” (Journal of Enzyme Inhibition and Medicinal Chemistry, 2019)

What follows are compounds tested against LdGSK-3 (Leishmania donovani, UniProt A6N857) (assay: Inhibition of LdGSK-3 with Kinase Glo). Conditions: Table S2; 10 µM.
Type: biochemical
Method: Assessment of inhibition of LdGSK-3 with Kinase Glo^TM
The reaction was allowed to proceed for 30 min at 30 °C, then it was incubated at room temperature for another 10 min after addition of Kinase Glo reagents (Promega, Ref. V6712). ATP consumption by LdGSK-3 was measured indirectly through end-point luminescence measurement of each well in a Varioskan Flash microplate reader (Thermo).

Sequence of LdGSK-3 (A6N857 entry or part of it): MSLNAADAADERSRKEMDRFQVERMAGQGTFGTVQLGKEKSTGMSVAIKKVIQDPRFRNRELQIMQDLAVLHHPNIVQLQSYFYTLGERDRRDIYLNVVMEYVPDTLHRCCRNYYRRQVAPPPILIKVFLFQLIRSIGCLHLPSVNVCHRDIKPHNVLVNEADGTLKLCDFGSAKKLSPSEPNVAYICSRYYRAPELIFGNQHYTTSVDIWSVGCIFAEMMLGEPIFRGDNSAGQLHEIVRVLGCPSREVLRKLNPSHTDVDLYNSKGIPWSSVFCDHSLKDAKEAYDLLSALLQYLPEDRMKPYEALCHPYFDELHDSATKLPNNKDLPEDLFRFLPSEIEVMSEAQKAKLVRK

Structure (SMILES) | % inhibition @ 10µM (initial screening on LdGSK3) [%]
OCC1CCCCN1c1cc(-c2ccccn2)nc(Nc2ccccc2)n1 (centres unmarked) [Compound 99] | 0.60±0.60
N#Cc1cccc(Nc2nccc(N3CCC(NS(=O)(=O)c4cccc(C#N)c4)CC3)n2)c1.O=C(O)C(F)(F)F [Compound 100] | 37.05±1.50
Br.Nc1nccc(-c2csc(Nc3ccc(Cl)cc3)n2)n1 [Compound 101] | 16.40±2.40
Oc1c(-c2n[nH]c(Cc3ccc(F)cc3)n2)ncc2cccnc12 [Compound 102] | 4.05±3.10
CC(C)(C)Nc1nc(Nc2ccc3c(c2)CS(=O)(=O)C3)nc2[nH]ccc12 [Compound 103] | 25.85±1.25
Cc1nn(-c2nc(N)nc(-c3ccccn3)n2)c(C)c1Cc1ccccc1 [Compound 104] | -0.75±1.55
NC(=O)c1cc(NC(=O)c2ccccc2COc2ccccc2)ccc1Cl [Compound 105] | -0.45±1.10
CC(C)Nc1nc(Cl)nc2ccccc12 [Compound 106] | -4.60±0.90
COc1ccc(C(=O)[C@H]2C[C@@H]2CN(Cc2ccccn2)Cc2ccccn2)cc1 [Compound 107] | -4.05±3.20
CCS(=O)(=O)Nc1ccc(C2=NN(C(=O)c3cccs3)C(c3ccccc3OC)C2)cc1 (centres unmarked) [Compound 108] | 5.15±1.90
COc1ccc(OC)c2c(=O)c(Cc3ccccc3)c(C)[nH]c12 [Compound 110] | -0.10±5.35
Cc1nc2c(-c3nc(-c4ccc(N)cc4)n[nH]3)cccn2c1C [Compound 111] | 7.35±4.65
CCOc1cc(NCCCN2CCN(C)CC2)c2ncccc2c1.Cl.Cl.Cl [Compound 112] | 7.50±0.65
Cc1nc2c(-c3nc(-c4ccccc4N)n[nH]3)cccn2c1C [Compound 113] | 1.40±0.50
Cc1cn[nH]c1C1CCCN(Cc2nc3ccccc3n2C)C1 (centres unmarked) [Compound 114] | 2.85±0.45
Cc1ccc2c(c1)SC(C(=O)Nc1n[nH]c(-c3ccccn3)n1)C2 (centres unmarked) [Compound 115] | 3.20±0.80
O=C(Nc1nc(-c2ccccn2)cs1)c1ccc(S(=O)(=O)N2CCCCC2)cc1 [Compound 116] | 7.05±1.35
NC(=O)c1ccsc1NC(=O)c1ccc([N+](=O)[O-])s1 [Compound 117] | 6.20±1.15
CCc1ccc2nc(NC(=O)c3cc(N4CCOCC4)ccn3)sc2c1 [Compound 118] | 22.80±3.55
Cc1nn(-c2nc3ccccc3[nH]2)c2c1C(c1ccc(O)cc1)CC(=O)N2 (centres unmarked) [Compound 120] | 18.15±1.70
Cl.NCc1ccc2c(Cl)cc(Cl)c(O)c2n1 [Compound 121] | 14.80±1.70
COc1ccc(Cl)cc1CC(=O)Nc1n[nH]c(-c2ccccn2)n1 [Compound 122] | 3.95±2.45
O=C(Cc1ccc2c(c1)CCC2)Nc1n[nH]c(-c2ccccn2)n1 [Compound 123] | 12.15±3.90
COc1ccc(C2=NCC(CSc3nnc(-c4ccc5c(c4)OCO5)o3)S2)cc1 (centres unmarked) [Compound 125] | 10.60±1.00

Structure (SMILES) | % inhibition @ 10µM (initial screening on LdGSK3) [%]
Cl.c1ccc(CNc2cccc3ccncc23)cc1 [Compound 126] | 17.10±1.10
CCC(=O)N1N=C(c2ccc3c(c2)CCCC3)Sc2c1ncn2C(=O)CC [Compound 127] | 9.65±3.70
Cn1ccnc1-c1nc(NCc2ccccc2Cl)cc(C2CC2)n1.O=C(O)C(F)(F)F [Compound 129] | 8.90±6.75
COc1cc2c(cc1OC)[C@H]1[C@@H](C)c3ccc(OC)c(OC)c3CN1CC2 [Compound 130] | 12.85±2.80
COc1ccc(NS(=O)(=O)c2cc(NC(=O)c3ccc([N+](=O)[O-])s3)ccc2OC)cc1 [Compound 131] | 19.75±3.70
O=C(Nc1nc(-c2ccc(F)cc2)cs1)c1ccc([N+](=O)[O-])s1 [Compound 132] | 8.15±0.95
O=C(Nc1cccc(S(=O)(=O)Nc2ccc(Br)cc2)c1)c1ccc([N+](=O)[O-])s1 [Compound 133] | 15.75±4.25
CC(CCc1ccccc1)NC(=O)CN(Cc1ccccn1)Cc1ccccn1.O=C(O)C(F)(F)F (centres unmarked) [Compound 134] | 5.25±1.70
COc1ccc(NS(=O)(=O)c2ccc(S(=O)(=O)N(C)C3CCCCC3)cc2)c2ncccc12 [Compound 135] | 6.85±1.55
CN(C)c1ccc(N)cc1CN(CC1CCCO1)S(C)(=O)=O (centres unmarked) [Compound 136] | 13.95±3.25
Cc1ccc(NC(C)C(=O)Nc2ccc(C#N)cc2)cc1S(=O)(=O)N1CCCCC1 (centres unmarked) [Compound 137] | 9.35±1.30
CCn1c(NC(=O)Cc2ccc(F)cc2)nc2ccccc21 [Compound 138] | 13.00±3.55
COc1cc(OC)cc(C(NS(=O)(=O)c2ccc(Cl)c(C(F)(F)F)c2)c2nccn2C)c1 (centres unmarked) [Compound 139] | 15.95±1.70
O=C(c1cccc(Nc2ncc(-c3ccc4c(c3)OCO4)cn2)c1)N1CCSC1 [Compound 140] | 18.20±7.00
CC(=O)Nc1ccc(-c2csc(NC(=O)c3ccc([N+](=O)[O-])s3)n2)cc1 [Compound 141] | 8.55±0.55
COc1ccc(-c2csc(NC(=O)c3ccc([N+](=O)[O-])s3)n2)cc1OC [Compound 142] | 7.95±2.05
O=C(CN1CCC2(O)CCCCC2C1c1ccc2c(c1)OCO2)Nc1ccc(Cl)cc1Cl (centres unmarked) [Compound 143] | 2.25±0.35
Cc1nn(-c2ccccc2)nc1CNC(=O)CN(Cc1ccccn1)Cc1ccccn1.O=C(O)C(F)(F)F [Compound 144] | 9.10±1.75
CCOc1ccc2nc(NC(=O)c3ccc([N+](=O)[O-])s3)sc2c1 [Compound 145] | 9.25±0.40
CCN(CC)c1nc(N(C)C)nc2c1CN(Cc1ccccc1)CC2 [Compound 146] | 11.85±0.55
Cc1cccc(Nc2nc(-c3ccccn3)cs2)n1 [Compound 147] | 13.40±2.35
COCc1cnc2c(c1SCc1c(F)cccc1Cl)c(=O)n(C)c(=O)n2C [Compound 148] | 9.60±3.10
Cc1nc(C(=O)Nc2ccc3c(c2)OCO3)nn1-c1ccc(Cl)cc1 [Compound 149] | 8.90±2.10
COc1ccc(CNc2nsc3ccccc23)cc1OC [Compound 150] | 13.55±4.65

Structure (SMILES) | % inhibition @ 10µM (initial screening on LdGSK3) [%]
O=C(CN1CCN(S(=O)(=O)c2cccc([N+](=O)[O-])c2)CC1)Nc1ccc(Oc2ccccc2)cc1 [Compound 152] | -2.95±1.70
COc1cccc(C(=O)[C@H]2C[C@@H]2CN(Cc2ccccn2)Cc2ccccn2)c1 [Compound 153] | -5.50±2.15
O=C(CN(Cc1ccccn1)Cc1ccccn1)NCc1ccc(-c2csnn2)cc1.O=C(O)C(F)(F)F [Compound 154] | 2.50±1.45
O=C(Nc1nc2ccccc2[nH]1)c1c(O)c2cccc3c2n(c1=O)CC3 [Compound 155] | 7.50±1.00
COc1ccc(C2CC(c3ccc(NS(C)(=O)=O)cc3)=NN2C(=O)c2cccs2)cc1OC (centres unmarked) [Compound 156] | 11.90±1.75
COc1ccc(Nc2nc(-c3ccccn3)cs2)c(OC)c1 [Compound 157] | 4.50±4.45
Cc1cc(C)n(-c2nc(NC(C)C)nc(NC(C)(C)C)n2)n1 [Compound 158] | 7.85±3.95
CCCc1cc(C(=O)Nc2ncc(-c3cccc(Br)c3)n2C)n[nH]1 [Compound 159] | 8.80±2.70
COc1ccc(-c2cnc(C)o2)cc1S(=O)(=O)Nc1ccc(C)cc1C [Compound 160] | 12.60±3.50
CCCCn1nnnc1CSc1nc(C)cc(C)c1C#N [Compound 161] | 3.00±3.05
COc1ccccc1C(=O)Nc1nnc(-c2ccc3c(c2)OCO3)s1 [Compound 162] | 9.20±3.30
O=C(c1ccc(Cl)cc1)c1ccc(OC(=O)N2CCOCC2)cc1 [Compound 163] | 3.10±0.70
COCCn1c(-c2ccc3c(c2)OCO3)cnc1NCc1ccccc1OC.O=C(O)C(=O)O [Compound 164] | 1.15±1.40
CCS(=O)(=O)c1cccc(C(=O)Nc2nc(-c3ccccn3)cs2)c1 [Compound 165] | 4.70±0.85
CCOc1ccc(Nc2ccc(S(=O)(=O)N3CCN(C)CC3)cc2[N+](=O)[O-])cc1OCC [Compound 166] | 18.60±2.15
CN(C)S(=O)(=O)c1cccc(CSc2nnc(-c3ccc4c(c3)OCO4)o2)c1 [Compound 167] | 38.45±1.35
CCCCN(C(=O)c1ccc(NC(=O)C(C)C)cc1)c1ccccc1 [Compound 168] | 14.15±2.15
Nc1nc(-c2ccccc2)cc(-c2nc3ncccc3[nH]2)n1 [Compound 169] | 32.90±2.70
COc1ccc(-c2cc(C)no2)cc1S(=O)(=O)Nc1ccc(C)c(C)c1 [Compound 170] | 13.20±1.65
Br.Fc1ccc(Nc2nc(-c3ccccn3)cs2)cc1 [Compound 171] | 4.25±2.30
COc1ccccc1-n1c(SCC(=O)Nc2ccc3c(c2)OCO3)nc2c(c1=O)SCC2 [Compound 172] | 5.20±2.65
COc1ccc2ncc(F)c(CCN3CC[C@@H](NC(=O)c4cc5c(s4)CCC5)[C@@H](O)C3)c2n1.Cl [Compound 173] | 8.60±2.90
COCCn1c(-c2ccccc2)cnc1NCc1ccccc1OC.O=C(O)C(=O)O [Compound 174] | 6.00±1.50
